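Five concentrations, 48 hours, 96-well plates. GI50: concentration for 50% inhibition of growth.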 Calls of active or inactive are those of the source. Rule as the data show it: active = GI50 up to about 1.1 µM and inactive = higher.
Experiments:
Test in all cases: NCI-60 cell line screen, 48 h
DU-145 = tested on: DU-145
NCI-H522 = tested on: NCI-H522
HCC 2998 = tested on: HCC 2998
COLO 205 = tested on: COLO 205
OVCAR-8 = tested on: OVCAR-8
OVCAR-5 = tested on: OVCAR-5
SK-MEL-28 = tested on: SK-MEL-28
PC-3 = tested on: PC-3
BT-549 = tested on: BT-549
EKVX = tested on: EKVX
NCI/ADR-RES = tested on: NCI/ADR-RES
SF-295 = tested on: SF-295
HOP-62 = tested on: HOP-62
LOX IMVI = tested on: LOX IMVI
SF-268 = tested on: SF-268
RXF 393 = tested on: RXF 393
MDA-MB-435 = tested on: MDA-MB-435
HCT-15 = tested on: HCT-15
SW-620 = tested on: SW-620
SK-MEL-5 = tested on: SK-MEL-5

Compound | GI50 (DU-145) | GI50 (NCI-H522) | GI50 (HCC 2998) | GI50 (COLO 205) | GI50 (OVCAR-8) | GI50 (OVCAR-5) | GI50 (SK-MEL-28) | GI50 (PC-3) | GI50 (BT-549) | GI50 (EKVX) | GI50 (NCI/ADR-RES) | GI50 (SF-295) | GI50 (HOP-62) | GI50 (LOX IMVI) | GI50 (SF-268) | GI50 (RXF 393) | GI50 (MDA-MB-435) | GI50 (HCT-15) [µM] | GI50 (SW-620) | GI50 (SK-MEL-5)
CCOC(=O)c1nc2c(nc1C(=O)OCC)C(=O)c1ccccc1C2=O | 0.828 µM (active) | 0.671 µM (active) | 1.35 µM (inactive) | 1.82 µM (inactive) | 1.05 µM (active) | 0.562 µM (active) | 1.03 µM (active) | 2.9 µM (inactive) | 0.471 µM (active) | 1.38 µM (inactive) | 1.17 µM (inactive) | 0.359 µM (active) | 0.618 µM (active) | 0.353 µM (active) | 0.818 µM (active) | 0.649 µM (active) | 0.246 µM (active) | 1.92 | 0.881 µM (active) | 0.407 µM (active)
Nc1ccc2c(c1)NC(=O)[C@@H]1CCCN1C2=O | > 100 µM (inactive) | > 100 µM (inactive) | > 100 µM (inactive) | > 100 µM (inactive) | > 100 µM (inactive) | > 100 µM (inactive) | > 100 µM (inactive) | > 100 µM (inactive) | > 100 µM (inactive) | > 100 µM (inactive) | > 100 µM (inactive) | > 100 µM (inactive) | > 100 µM (inactive) | > 100 µM (inactive) | > 100 µM (inactive) | > 100 µM (inactive) | > 100 µM (inactive) | > 100 | > 100 µM (inactive) | > 100 µM (inactive)
C/C(=N\NC(=O)/C(C#N)=C\c1ccc(N(CCC#N)CCC#N)cc1)c1ccccc1 | > 10 µM (inactive) | > 10 µM (inactive) | > 10 µM (inactive) | > 10 µM (inactive) | > 10 µM (inactive) | – | > 10 µM (inactive) | > 10 µM (inactive) | > 10 µM (inactive) | > 10 µM (inactive) | > 10 µM (inactive) | > 10 µM (inactive) | > 10 µM (inactive) | > 10 µM (inactive) | > 10 µM (inactive) | > 10 µM (inactive) | > 10 µM (inactive) | > 10 | > 10 µM (inactive) | > 10 µM (inactive)
COc1cc(Cc2nccc3cc(OC)c(OC)cc23)c(C(C)=O)cc1OC | > 100 µM (inactive) | 10.2 µM (inactive) | 80.7 µM (inactive) | 18.4 µM (inactive) | – | > 300 µM (inactive) | – | > 100 µM (inactive) | > 100 µM (inactive) | 205 µM (inactive) | > 300 µM (inactive) | > 300 µM (inactive) | 39.4 µM (inactive) | 23.6 µM (inactive) | 1.56 µM (inactive) | 189 µM (inactive) | 61 µM (inactive) | – | – | 57.4 µM (inactive)
CC(C)c1cc(=O)[nH]c2cc(N)ccc12 | > 100 µM (inactive) | – | > 100 µM (inactive) | > 100 µM (inactive) | > 100 µM (inactive) | > 100 µM (inactive) | > 100 µM (inactive) | > 100 µM (inactive) | > 100 µM (inactive) | > 100 µM (inactive) | > 100 µM (inactive) | > 100 µM (inactive) | > 100 µM (inactive) | > 100 µM (inactive) | – | > 100 µM (inactive) | > 100 µM (inactive) | > 100 | > 100 µM (inactive) | > 100 µM (inactive)
Cc1ccc(O)c(C2=CC3=NNC(=O)C3C(c3cccc(Br)c3)C2)c1 (configuration not stated) | 29.2 µM (inactive) | – | 14.7 µM (inactive) | 12.3 µM (inactive) | 20.8 µM (inactive) | 21.8 µM (inactive) | 20.6 µM (inactive) | 34.3 µM (inactive) | 23.1 µM (inactive) | 25.9 µM (inactive) | 34.6 µM (inactive) | 18.8 µM (inactive) | 55 µM (inactive) | 14 µM (inactive) | 23 µM (inactive) | 14.2 µM (inactive) | 23.9 µM (inactive) | 20.9 | 27.7 µM (inactive) | 23.1 µM (inactive)
c1ccc(B2OCC(C3OB(c4ccccc4)OC4COB(c5ccccc5)OC43)O2)cc1 (configuration not stated) | > 100 µM (inactive) | 24.5 µM (inactive) | – | > 100 µM (inactive) | > 100 µM (inactive) | > 100 µM (inactive) | > 100 µM (inactive) | > 100 µM (inactive) | > 100 µM (inactive) | > 100 µM (inactive) | > 100 µM (inactive) | > 100 µM (inactive) | > 100 µM (inactive) | > 100 µM (inactive) | > 100 µM (inactive) | > 100 µM (inactive) | > 100 µM (inactive) | > 100 | > 100 µM (inactive) | > 100 µM (inactive)
O=C(CCCn1ccnc1[N+](=O)[O-])NCCn1cnc([N+](=O)[O-])c1 | > 100 µM (inactive) | > 100 µM (inactive) | > 100 µM (inactive) | > 100 µM (inactive) | > 100 µM (inactive) | > 100 µM (inactive) | > 100 µM (inactive) | > 100 µM (inactive) | > 100 µM (inactive) | > 100 µM (inactive) | > 100 µM (inactive) | > 100 µM (inactive) | > 100 µM (inactive) | > 100 µM (inactive) | > 100 µM (inactive) | – | > 100 µM (inactive) | > 100 | > 100 µM (inactive) | > 100 µM (inactive)
CCCCCCOC(=O)C(N)Cc1ccc(OC)cc1 (configuration not stated) | > 100 µM (inactive) | > 100 µM (inactive) | – | > 100 µM (inactive) | > 100 µM (inactive) | > 100 µM (inactive) | > 100 µM (inactive) | > 100 µM (inactive) | > 100 µM (inactive) | > 100 µM (inactive) | > 100 µM (inactive) | > 100 µM (inactive) | > 100 µM (inactive) | > 100 µM (inactive) | > 100 µM (inactive) | > 100 µM (inactive) | > 100 µM (inactive) | > 100 | > 100 µM (inactive) | > 100 µM (inactive)
CCOC(=O)NC(OC)(C(F)(F)F)C(F)(F)F | > 100 µM (inactive) | > 100 µM (inactive) | > 100 µM (inactive) | > 100 µM (inactive) | > 100 µM (inactive) | – | > 100 µM (inactive) | > 100 µM (inactive) | > 100 µM (inactive) | > 100 µM (inactive) | > 100 µM (inactive) | > 100 µM (inactive) | > 100 µM (inactive) | > 100 µM (inactive) | > 100 µM (inactive) | > 100 µM (inactive) | > 100 µM (inactive) | > 100 | > 100 µM (inactive) | > 100 µM (inactive)
COc1cc(OC)c2nc(C)c3c(c2c1)NCC3 | 21.6 µM (inactive) | 7.73 µM (inactive) | 7.83 µM (inactive) | 4.68 µM (inactive) | 4.51 µM (inactive) | 6.28 µM (inactive) | 15.2 µM (inactive) | 6.03 µM (inactive) | 14.4 µM (inactive) | – | 18.4 µM (inactive) | 11.2 µM (inactive) | 7.74 µM (inactive) | 3.25 µM (inactive) | 5.92 µM (inactive) | 4.48 µM (inactive) | 10 µM (inactive) | 12.1 | 4.42 µM (inactive) | 10 µM (inactive)
CCOC(=O)c1ccc2nc3n(c2c1)C(c1c(F)cccc1F)SC3 (configuration not stated) | > 100 µM (inactive) | – | > 100 µM (inactive) | > 100 µM (inactive) | > 100 µM (inactive) | > 100 µM (inactive) | > 100 µM (inactive) | 72.1 µM (inactive) | > 100 µM (inactive) | 29.9 µM (inactive) | > 100 µM (inactive) | > 100 µM (inactive) | 57.3 µM (inactive) | > 100 µM (inactive) | > 100 µM (inactive) | 24.9 µM (inactive) | > 100 µM (inactive) | > 100 | > 100 µM (inactive) | > 100 µM (inactive)
COC1(C)/C=N/CC(C)(C)NC(=O)C(C)(OC)/C=N/CC(C)(C)NC1=O (configuration not stated) | > 10 µM (inactive) | 3.53 µM (inactive) | > 10 µM (inactive) | > 10 µM (inactive) | > 10 µM (inactive) | – | > 10 µM (inactive) | > 10 µM (inactive) | > 10 µM (inactive) | > 10 µM (inactive) | > 10 µM (inactive) | > 10 µM (inactive) | > 10 µM (inactive) | – | > 10 µM (inactive) | > 10 µM (inactive) | > 10 µM (inactive) | > 10 | > 10 µM (inactive) | > 10 µM (inactive)
CCOC(=O)c1c(-c2ccccc2)nc2c(OC)nccn12 | > 100 µM (inactive) | > 100 µM (inactive) | > 100 µM (inactive) | > 100 µM (inactive) | > 100 µM (inactive) | – | > 100 µM (inactive) | > 100 µM (inactive) | > 100 µM (inactive) | > 100 µM (inactive) | > 100 µM (inactive) | > 100 µM (inactive) | > 100 µM (inactive) | > 100 µM (inactive) | > 100 µM (inactive) | 15.4 µM (inactive) | > 100 µM (inactive) | > 100 | > 100 µM (inactive) | 61.1 µM (inactive)
O=S(=O)(O)c1ccc(/N=N/c2ccc3c(S(=O)(=O)O)cccc3c2O)c2ccccc12 | > 100 µM (inactive) | > 100 µM (inactive) | – | > 100 µM (inactive) | > 100 µM (inactive) | > 100 µM (inactive) | > 100 µM (inactive) | > 100 µM (inactive) | > 100 µM (inactive) | > 100 µM (inactive) | > 100 µM (inactive) | > 100 µM (inactive) | > 100 µM (inactive) | > 100 µM (inactive) | > 100 µM (inactive) | > 100 µM (inactive) | > 100 µM (inactive) | > 100 | > 100 µM (inactive) | > 100 µM (inactive)

From ChEMBL document CHEMBL1201862, “PubChem BioAssay data set” (2004)
